The record followed here is patent US20250230155A1 (Vanderbilt University, priority 2021, published 2025).

This test addresses T1, human mAChR M4 (Homo sapiens, UniProt P08173).
T1 construct: expressed in transfected cells
T1 sequence (P08173 1-479): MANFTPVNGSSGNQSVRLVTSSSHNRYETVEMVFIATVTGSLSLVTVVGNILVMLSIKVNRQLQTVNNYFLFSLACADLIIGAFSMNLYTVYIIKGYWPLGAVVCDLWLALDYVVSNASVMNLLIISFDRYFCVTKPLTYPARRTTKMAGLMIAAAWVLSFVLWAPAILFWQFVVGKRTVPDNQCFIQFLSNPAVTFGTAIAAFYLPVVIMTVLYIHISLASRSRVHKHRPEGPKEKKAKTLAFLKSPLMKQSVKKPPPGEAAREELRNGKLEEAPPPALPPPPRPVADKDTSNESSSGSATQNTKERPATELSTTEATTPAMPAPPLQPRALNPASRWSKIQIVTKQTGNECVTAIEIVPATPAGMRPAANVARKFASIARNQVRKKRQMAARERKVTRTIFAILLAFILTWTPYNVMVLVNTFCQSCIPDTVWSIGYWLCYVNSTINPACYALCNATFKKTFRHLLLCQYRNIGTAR
The test can be described thus: mAChR M4 cell-based functional assay (calcium mobilization, CHO-K1 hM4-Gqi5 cells). The following applies: for Emax at 30 µM: CHO-K1, % ACh maximum at 30 μM, human M4; for EC50: positive allosteric modulator activity, increase in the EC20 acetylcholine response, CHO-K1 hM4-Gqi5 cells, read-out: Human M4 EC50. In short, it runs like this: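 Fluorescent calcium read-out (Fluo-4 AM, FDSS, 1 Hz) in hM4-Gqi5 CHO-K1 cells, 11-point 1:3 compound series. Agonism scored on compound addition, PAM activity as increase of the 144 s EC20 acetylcholine response, antagonism as decrease of the 230 s EC80 response; four-parameter logistic fits give EC50 and Emax.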
A general note: Calcium assays in cells follow changes in intracellular calcium, usually with a dye or a luminescent sensor.

Structures are written as SMILES. Bounds are passed on as bounds.

For orientation: Emax means the greatest response seen or fitted, relative to the assay's reference. Broadly, the EC50 is the concentration at which the effect is half-maximal. Regarding `[2H]C([2H])([2H])c1cnc2c(c1)CN(c1nnc(C(=O)N3CC4(COC4)C3)cc1C)CC2` [Example 577, (5-methyl-6-(3-(methyl-d3)-7,8-dihydro-1,6-naphthyridin-6(5H)-yl)pyridazin-3-yl)(2-oxa-6-azaspiro[3.3]heptan-6-yl)methanone], the Emax at 30 µM came out at 70% and the concentration for a half-maximal effect (EC50) stood at 0.109 µM.
For `Cc1c(C#N)nnc(N2CCc3ncc(-c4ccc(N5CCN(C)CC5)nc4)cc3C2)c1C` [Example 328, 4,5-dimethyl-6-(3-(6-(4-methylpiperazin-1-yl)pyridin-3-yl)-7,8-dihydro-1,6-naphthyridin-6(5H)-yl)pyridazine-3-carbonitrile], the Emax at 30 µM came out at 64% and the EC50 stood at 0.191 µM.
Regarding `Cc1cc(C(=O)NCc2cncs2)nnc1N1CCc2ncc(-c3ccnn3C)cc2C1` [Example 516, 5-methyl-6-(3-(1-methyl-1H-pyrazol-5-yl)-7,8-dihydro-1,6-naphthyridin-6(5H)-yl)-N-(thiazol-5-ylmethyl)pyridazine-3-carboxamide], the Emax at 30 µM came to 102% and the concentration giving a half-maximal response (EC50) came out at 0.031 µM.
As for `Cc1cc(C#N)cnc1N1CCc2ncc(N3CCCC3)cc2C1` [Example 1], the Emax at 30 µM turned out to be 86% and the EC50 was 0.286 µM.
For the compound `Cc1cc(C(=O)NCc2cnn3ccccc23)cnc1N1CCc2ncccc2C1` [compound 69, 6-(7,8-dihydro-5H-1,6-naphthyridin-6-yl)-5-methyl-N-(pyrazolo[1,5-a]pyridin-3-ylmethyl)pyridine-3-carboxamide], the maximal response (Emax) at 30 µM is 80% and the EC50 came to 2.38 µM.
On to `Cc1cc(C#N)cnc1N1CCc2ncc(N3CCO[C@@H](c4ccccc4)C3)cc2C1` [Example 378, (S)-5-methyl-6-(3-(2-phenylmorpholino)-7,8-dihydro-1,6-naphthyridin-6(5H)-yl)nicotinonitrile], for which the maximal response (Emax) at 30 µM worked out at 62% and the EC50 came to 4.31 µM.
For `Cc1c(C#N)nnc(N2CCc3ncc(Nc4c(F)cccc4Cl)cc3C2)c1C` [Example 33], the Emax at 30 µM was found to be 66% and the EC50 is 0.197 µM.
For `Cc1cc(C(=O)NCc2ccccn2)cnc1N1CCc2ncccc2C1` [compound 59, 6-(7,8-dihydro-5H-1,6-naphthyridin-6-yl)-5-methyl-N-(2-pyridylmethyl)pyridine-3-carboxamide] the same measures were 68% and 6.91 µM.
As to `Cc1cc(C#N)nnc1N1CCc2ncc(N3CCCn4nc(C5CC5)cc43)cc2C1` [Example 419, 6-(3-(2-cyclopropyl-6,7-dihydropyrazolo[1,5-a]pyrimidin-4(5H)-yl)-7,8-dihydro-1,6-naphthyridin-6(5H)-yl)-5-methylpyridazine-3-carbonitrile], the Emax at 30 µM amounted to 87% and the concentration giving a half-maximal response (EC50) stood at 0.284 µM.
Regarding `Cn1nccc1Nc1cnc2c(c1)CN(c1nc(Cl)nc3c1COC3)CC2` [compound 288, 6-(2-chloro-5,7-dihydrofuro[3,4-d]pyrimidin-4-yl)-N-(1-methyl-1H-pyrazol-5-yl)-5,6,7,8-tetrahydro-1,6-naphthyridin-3-amine], the concentration giving a half-maximal response (EC50) worked out at 1.22 µM.
As for `Cc1cnccc1CNC(=O)c1cnc(N2CCc3ncc(Nc4ccnn4C)cc3C2)c(C)c1` [Example 474, 5-methyl-6-(3-((1-methyl-1H-pyrazol-5-yl)amino)-7,8-dihydro-1,6-naphthyridin-6(5H)-yl)-N-((3-methylpyridin-4-yl)methyl)nicotinamide], the Emax at 30 µM came out at 89% and the EC50 worked out at 0.206 µM.
As for `Cc1cc(C(=O)N2CC(C)(O)C2)nnc1N1CCc2ncc(CC(F)(F)F)cc2C1` [Example 588, (3-hydroxy-3-methylazetidin-1-yl)(5-methyl-6-(3-(2,2,2-trifluoroethyl)-7,8-dihydro-1,6-naphthyridin-6(5H)-yl)pyridazin-3-yl)methanone], the maximal effect (Emax) at 30 µM stood at 93% and the EC50 came out at 0.322 µM.
For the compound `Cc1cc(C#N)cnc1N1CCc2ncc(OCCOc3ccccc3)cc2C1` [Example 427, 5-methyl-6-(3-(2-phenoxyethoxy)-7,8-dihydro-1,6-naphthyridin-6(5H)-yl)nicotinonitrile], the Emax at 30 µM amounted to 63% and the EC50 turned out to be 2.67 µM.
For `Clc1nc2c(c(N3CCc4ncc(-c5cnn(C6CC6)c5)cc4C3)n1)COC2` [compound 286, 2-chloro-4-(3-(1-cyclopropyl-1H-pyrazol-4-yl)-7,8-dihydro-1,6-naphthyridin-6(5H)-yl)-5,7-dihydrofuro[3,4-d]pyrimidine] the same measures were 33% and 0.504 µM.
For `Cc1cc(C(=O)NCc2cccnc2)cnc1N1CCc2ncc(-c3cn(C)nc3C)cc2C1` [Example 457, 6-(3-(1,3-dimethyl-1H-pyrazol-4-yl)-7,8-dihydro-1,6-naphthyridin-6(5H)-yl)-5-methyl-N-(pyridin-3-ylmethyl)nicotinamide], the Emax at 30 µM worked out at 85% and the EC50 amounted to 0.576 µM.
Turning to `Cc1c(C#N)nnc(N2CCc3ncc(-c4ccnc(Cl)c4F)cc3C2)c1C` [compound 73, 6-[3-(2-chloro-3-fluoro-4-pyridyl)-7,8-dihydro-5H-1,6-naphthyridin-6-yl]-4,5-dimethyl-pyridazine-3-carbonitrile], the Emax at 30 µM was 50% and the EC50 came to 0.94 µM.
As for `Cc1cc(C(=O)NCc2cnc3ccccc3c2)cnc1N1CCc2ncccc2C1` [compound 140, 6-(7,8-dihydro-5H-1,6-naphthyridin-6-yl)-5-methyl-N-(3-quinolylmethyl)pyridine-3-carboxamide], the Emax at 30 µM came out at 62% and the EC50 is 1.03 µM.
Consider `Cc1cc(Nc2cnc3c(c2)CN(c2ncc(C#N)cc2C)CC3)n(C(C)C)n1` [Example 316, 6-(3-((1-isopropyl-3-methyl-1H-pyrazol-5-yl)amino)-7,8-dihydro-1,6-naphthyridin-6(5H)-yl)-5-methylnicotinonitrile], for which the Emax at 30 µM turned out to be 57% and the EC50 stood at 0.689 µM.
Take `Cc1ccccc1OCCOc1cnc2c(c1)CN(c1ncc(C#N)cc1C)CC2` [Example 430, 5-methyl-6-(3-(2-(o-tolyloxy)ethoxy)-7,8-dihydro-1,6-naphthyridin-6(5H)-yl)nicotinonitrile]: the maximal response (Emax) at 30 µM turned out to be 42% and the EC50 is 6.53 µM.
`Cc1nc(Cl)c(C)c(N2Cc3cc(-c4cn(C)nc4C)cnc3C(C)(C)C2)n1` [compound 238, 6-(6-chloro-2,5-dimethylpyrimidin-4-yl)-3-(1,3-dimethyl-1H-pyrazol-4-yl)-8,8-dimethyl-5,6,7,8-tetrahydro-1,6-naphthyridine]: the Emax at 30 µM was determined as 36% and the concentration for a half-maximal effect (EC50) was determined as 0.819 µM.
`Cc1nc(Cl)c(C)c(N2Cc3cc(Br)cnc3C(C)(C)C2)n1` [compound 236, 3-bromo-6-(6-chloro-2,5-dimethylpyrimidin-4-yl)-8,8-dimethyl-5,6,7,8-tetrahydro-1,6-naphthyridine]: the EC50 is ≥ 10 µM. Where the note is “CHO-K1”, the Emax was found to be 29%.
Take `Cc1nc(C(F)(F)F)nc(N2CCc3ncc(N4CCCn5nccc54)cc3C2)c1C` [compound 258, 3-(6,7-dihydropyrazolo[1,5-a]pyrimidin-4(5H)-yl)-6-(5,6-dimethyl-2-(trifluoromethyl)pyrimidin-4-yl)-5,6,7,8-tetrahydro-1,6-naphthyridine]: the Emax at 30 µM was 79% and the EC50 stood at 0.069 µM.
As for `Cc1cc(C(=O)NCc2csc3ccccc23)cnc1N1CCc2ncc(-c3cn(C)nc3C)cc2C1` [Example 452, N-(benzo[b]thiophen-3-ylmethyl)-6-(3-(1,3-dimethyl-1H-pyrazol-4-yl)-7,8-dihydro-1,6-naphthyridin-6(5H)-yl)-5-methylnicotinamide], the Emax at 30 µM is 89% and the EC50 is 1.79 µM.
Turning to `[2H]C([2H])(NC(=O)c1cc(C)c(N2CCc3ncc(C(F)(F)F)cc3C2)nn1)c1ccncc1` [Example 505, 5-methyl-N-(pyridin-4-ylmethyl-d2)-6-(3-(trifluoromethyl)-7,8-dihydro-1,6-naphthyridin-6(5H)-yl)pyridazine-3-carboxamide], the Emax at 30 µM was determined as 112% and the EC50 stood at 0.021 µM.
For `O=C(NCc1ccncc1)c1ccc(N2CCc3ncc(C(F)(F)F)cc3C2)nn1` [Example 511, N-(pyridin-4-ylmethyl)-6-(3-(trifluoromethyl)-7,8-dihydro-1,6-naphthyridin-6(5H)-yl)pyridazine-3-carboxamide] the same measures were 75% and 3.16 µM.
The matching figures for `Cc1cc(C(=O)NCc2cccc3cccnc23)cnc1N1CCc2ncccc2C1` [compound 156, 6-(7,8-dihydro-5H-1,6-naphthyridin-6-yl)-5-methyl-N-(8-quinolylmethyl)pyridine-3-carboxamide]: 84% and 1.15 µM.
Turning to `Cc1nc(Cl)c(C)c(N2Cc3cc(C(F)(F)F)cnc3C(C)(C)C2)n1` [compound 257, 6-(6-chloro-2,5-dimethylpyrimidin-4-yl)-8,8-dimethyl-3-(trifluoromethyl)-5,6,7,8-tetrahydro-1,6-naphthyridine], the Emax at 30 µM amounted to 39% and the concentration for a half-maximal effect (EC50) was 8.31 µM.
